Source: US7838513B2, “Anti-cancer therapy comprising an H2-blocker, at least one antiinflammatory agent and a cytotoxic agent” (Tiltan Pharma Ltd., priority 2006, dated 2010)
“Also recorded” adds a separate entry of the source.

Tests used:
[1] = test system: mouse mammary carcinoma (EMT6/CTX); assay: Suppression of subcutaneous EMT6/CTX tumor growth in mice (tumor size); assay type: in vivo, mice of the CB6F1 strain; settings: 28 days from tumor cell inoculation; i.p.; levamisole 12 mg/Kg, cimetidine 20 mg/Kg; vs control
Method: In the following exemplary embodiments of the present invention, different pharmaceutical compositions of the invention were tested in vivo for the purpose of suppression of tumor growth in mice. The control group received a vehicle containing only non-active ingredients which was compared to groups which received pharmaceutical compositions comprising different active ingredients as described in detail below. 3.5×10^5 cells of mouse mammary carcinoma (EMT6/CTX) were injected subcutaneously in to 7-8 week-old mice of the CB6F1 strain (a cross between Balbc and C57bl), in the center of their backs. The mice were then marked and divided into groups. Typically, each group consisted of 7 to 8 mice. The tumor size was measured twice a week and plotted in a graph. […] The width measurement was also used as an indication for tumor height, and the 0.52 is a normalizing factor. Mice were injected with a specified pharmaceutical composition, 6 days a week. Injection volume was 0.05 mL per 10 g body weight (25 g mice received 0.125 mL). All injections were performed intraperitoneally. The week was divided into two treatment types, cytotoxic treatment and non-cytotoxic treatment days according to the corresponding composition. […] 98% of final solution volume was measured and 2% solutol (liquid) was added. […] 98% of final solution volume was measured and 2% solutol (liquid) was added. […]

[2] = test system: tumor growth; settings: Example 4 of U.S. Patent Application 20030158118; cited from earlier work
[3] = test system: tumor growth; settings: Experiments 3 and 4 (FIGS. 3 and 4) in WO03/061566; cited from earlier work

Row | SMILES | Effect on tumor growth (tumor size), Example 2, FIG. 2 [1] | Inhibition of tumor growth by Cimetidine by itself [2] | Effect of cyclophosphamide alone on tumor growth [3]
1 | c1ccc([C@H]2CN3CCSC3=N2)cc1 [levamisole] | neither levamisole (Group 2), nor cimetidine (Group 3), nor their combination (Group 4) had any significant effect on tumor growth; also recorded: neither the H2-blocker (cimetidine) alone, nor levamisole alone demonstrated any significant anti-cancer activity | – | –
2 | CN/C(=N/CCSCc1nc[nH]c1C)NC#N [cimetidine] | neither levamisole (Group 2), nor cimetidine (Group 3), nor their combination (Group 4) had any significant effect on tumor growth; also recorded: did not result in any significant effect on tumor growth; also recorded: neither the H2-blocker (cimetidine) alone, nor levamisole alone demonstrated any significant anti-cancer activity | did not inhibit tumor growth to any significant amount | –
3 | O=P1(N(CCCl)CCCl)NCCCO1 (stereo not shown) [cyclophosphamide] | – | – | very moderate effect
